{
  "source": "patent US20080306056A1",
  "about": "“PYRAZOLE-DERIVATIVES AS FACTOR Xa INHIBITORS” (SANOFI-AVENTIS DEUTSCHLAND GMBH, priority 2002, published 2008)",
  "target": "T1, human factor Xa (Homo sapiens, UniProt P00742)",
  "T1 construct": "25 μl human factor Xa (Enzyme Research Laboratories, Inc; South Bend, Ind.); purchased Enzyme Research Laboratories, Inc; South Bend, Ind",
  "T1 sequence (P00742 235-488 limits assumed)": "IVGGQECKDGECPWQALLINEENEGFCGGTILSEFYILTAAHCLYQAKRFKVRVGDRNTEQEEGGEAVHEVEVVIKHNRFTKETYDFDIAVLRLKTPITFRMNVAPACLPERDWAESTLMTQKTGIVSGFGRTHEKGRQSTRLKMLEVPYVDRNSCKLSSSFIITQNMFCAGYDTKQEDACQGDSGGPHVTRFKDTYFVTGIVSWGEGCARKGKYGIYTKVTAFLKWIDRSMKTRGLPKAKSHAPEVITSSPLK",
  "T1 sequence (P00742 41-179 partner limits assumed)": "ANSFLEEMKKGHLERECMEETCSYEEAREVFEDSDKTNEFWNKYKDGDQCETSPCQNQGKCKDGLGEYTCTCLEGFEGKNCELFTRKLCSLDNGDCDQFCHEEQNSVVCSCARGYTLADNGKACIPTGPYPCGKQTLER",
  "assay": "Factor Xa assay (chromogenic, purified enzyme)",
  "type": "biochemical",
  "details": "inhibition constant for factor Xa; chromogenic substrate S-2765 140 μM, enzyme 0.5 nM, 25° C., pH 7.8; Ki=IC50/{1+(substrate concentration/Km)}; read-out: Ki(FXa)",
  "excerpt": "The ability of the compound of formulae I, Ib and Ic to inhibit factor Xa or factor VIIa or other enzymes like thrombin, plasmin, or trypsin can be assessed by determining the concentration of the compound of the formulae I, Ib and Ic that inhibits enzyme activity by 50%, i.e. the IC50 value, which was related to the inhibition constant Ki. Purified enzymes were used in chromogenic assays. The concentration of inhibitor that causes a 50% decrease in the rate of substrate hydrolysis was determined by linear regression after plotting the relative rates of hydrolysis (compared to the uninhibited control) versus the log of the concentration of the compound of formulae I, Ib and Ic. For calculating the inhibition constant Ki, the IC50 value was corrected for competition with substrate using the formula wherein Km is the Michaelis-Menten constant (Chen and Prusoff, Biochem.\nKi=IC50/{1+(substrate concentration/Km)}\nPharmacol. 22 (1973) 3099-3108; I. H. Segal, Enzyme Kinetics, 1975, John Wiley & Sons, New York, 100-125; which were incorporated herein by reference).\nThe IC50 was determined by combining in appropriate wells of a Costar half-area microtiter plate 25 μl human factor Xa (Enzyme Research Laboratories, Inc.; South Bend, Ind.) in TBS-PEG; 40 μl 10% (v/v) DMSO in TBS-PEG (uninhibited control) or various concentrations of the compound to be tested diluted in 10% (v/v) DMSO in TBS-PEG; and substrate S-2765 (N(α)-benzyloxycarbonyl-D-Arg-Gly-L-Arg-p-nitroanilide; Kabi Pharmacia, Inc.; Franklin, Ohio) in TBS-PEG.\nThe assay was performed by pre-incubating the compound of formulae I, Ib and Ic plus enzyme for 10 min. Then the assay was initiated by adding substrate to obtain a final volume of 100 μl. The initial velocity of chromogenic substrate hydrolysis was measured by the change in absorbance at 405 nm using a Bio-tek Instruments kinetic plate reader (Ceres UV900HDi) at 25° C. during the linear portion of the time course (usually 1.5 min after addition of substrate). The enzyme concentration was 0.5 nM and substrate concentration was 140 μM.\nThe inhibitory activity towards factor VIIa/tissue factor activity was determined using a chromogenic assay essentially as described previously (J. A. Ostrem et al., Biochemistry 37 (1998) 1053-1059 which was incorporated herein by reference). Kinetic assays were conducted at 25° C. in half-area microtiter plates (Costar Corp., Cambridge, Mass.) using a kinetic plate reader (Molecular Devices Spectramax 250). A typical assay consisted of 25 μl human factor VIIa and TF (5 nM and 10 nM, respective final concentration) combined with 40 μl of inhibitor dilutions in 10% DMSO/TBS-PEG buffer (50 mM Tris, 15 mM NaCl, 5 mM CaCl2, 0.05% PEG 8000, pH 8.15). Following a 15 minute preincubation period, the assay was initiated by the addition of 35 μl of the chromogenic substrate S-2288 (D-Ile-Pro-Arg-p-nitroanilide, Pharmacia Hepar Inc., 500 μM final concentration).",
  "data": [
    {"smiles": "CC(C)N1CCC(NC(=O)c2cc(-c3cccs3)nn2Cc2cc(-c3ccc(Cl)s3)on2)CC1", "note": "[Example 1, 2-[5-(5-Chloro-thiophen-2-yl)-isoxazol-3-ylmethyl]-5-thiophen-2-yl-2H-pyrazole-3-carboxylic acid (1-isopropyl-piperidin-4-yl)-amide]", "values": [
      {"measurement": "Ki", "result": 30, "unit": "nM"}
    ]},
    {"smiles": "CC(C)N1CCC(NC(=O)c2cc(-c3cccs3)n(Cc3cc(-c4ccc(Cl)s4)on3)n2)CC1", "note": "[Example 2, 1-[5-(5-Chloro-thiophen-2-yl)-isoxazol-3-ylmethyl]-5-thiophen-2-yl-1H-pyrazole-3-carboxylic acid (1-isopropyl-piperidin-4-yl)-amide]", "values": [
      {"measurement": "Ki", "result": 32, "unit": "nM"}
    ]},
    {"smiles": "Cc1cc(C(=O)NC2CCN(C(C)C)CC2)n(Cc2cc(-c3ccc(Cl)s3)on2)n1", "note": "[Example 3, 2-[5-(5-Chloro-thiophen-2-yl)-isoxazol-3-ylmethyl]-5-methyl-2H-pyrazole-3-carboxylic acid (1-isopropyl-piperidin-4-yl)-amide]", "values": [
      {"measurement": "Ki", "result": 112, "unit": "nM"}
    ]},
    {"smiles": "CC(C)N1CCC(NC(=O)c2cc(-c3ccc(Cl)s3)nn2Cc2cc(-c3ccc(Cl)s3)on2)CC1", "note": "[Example 5, 5-(5-Chloro-thiophen-2-yl)-2-[5-(5-chloro-thiophen-2-yl)-isoxazol-3-ylmethyl]-2H-pyrazole-3-carboxylic acid (1-isopropyl-piperidin-4-yl)-amide]", "values": [
      {"measurement": "Ki", "result": 300, "unit": "nM"}
    ]},
    {"smiles": "CC(C)N1CCC(NC(=O)c2cc(-c3ccc(Cl)s3)n(Cc3cc(-c4ccc(Cl)s4)on3)n2)CC1", "note": "[Example 6, 5-(5-Chloro-thiophen-2-yl)-1-[5-(5-chloro-thiophen-2-yl)-isoxazol-3-ylmethyl]-1H-pyrazole-3-carboxylic acid (1-isopropyl-piperidin-4-yl)-amide]", "values": [
      {"measurement": "Ki", "result": 491, "unit": "nM"}
    ]},
    {"smiles": "CC(C)N1CCC(NC(=O)c2c(-c3ccc(Cl)cc3Cl)cnn2Cc2cc(-c3ccc(Cl)s3)on2)CC1", "note": "[Example 7, 2-[5-(5-Chloro-thiophen-2-yl)-isoxazol-3-ylmethyl]-4-(2,4-dichloro-phenyl)-2H-pyrazole-3-carboxylic acid (1-isopropyl-piperidin-4-yl)-amide]", "values": [
      {"measurement": "Ki", "result": 293, "unit": "nM"}
    ]},
    {"smiles": "CCCc1cc(C(=O)NC2CCN(C(C)C)CC2)n(Cc2cc(-c3ccc(Cl)s3)on2)n1", "note": "[Example 8, 2-[5-(5-Chloro-thiophen-2-yl)-isoxazol-3-ylmethyl]-5-propyl-2H-pyrazole-3-carboxylic acid (1-isopropyl-piperidin-4-yl)-amide]", "values": [
      {"measurement": "Ki", "result": 54, "unit": "nM"}
    ]},
    {"smiles": "CC(C)N1CCC(NC(=O)c2cc(C(C)(C)C)nn2Cc2cc(-c3ccc(Cl)s3)on2)CC1", "note": "[Example 9, 5-tert-Butyl-2-[5-(5-chloro-thiophen-2-yl)-isoxazol-3-ylmethyl]-2H-pyrazole-3-carboxylic acid (1-isopropyl-piperidin-4-yl)-amide]", "values": [
      {"measurement": "Ki", "result": 332, "unit": "nM"}
    ]},
    {"smiles": "CCCc1nn(Cc2cc(-c3ccc(Cl)s3)on2)c(C(=O)NC2CCN(C(C)C)CC2)c1C#N", "note": "[Example 10, 2-[5-(5-Chloro-thiophen-2-yl)-isoxazol-3-ylmethyl]-4-cyano-5-propyl-2H-pyrazole-3-carboxylic acid (1-isopropyl-piperidin-4-yl)-amide]", "values": [
      {"measurement": "Ki", "result": 41, "unit": "nM"}
    ]},
    {"smiles": "CCCc1c(C#N)c(C(=O)NC2CCN(C(C)C)CC2)nn1Cc1cc(-c2ccc(Cl)s2)on1", "note": "[Example 11, 1-[5-(5-Chloro-thiophen-2-yl)-isoxazol-3-ylmethyl]-4-cyano-5-propyl-1H-pyrazole-3-carboxylic acid (1-isopropyl-piperidin-4-yl)-amide]", "values": [
      {"measurement": "Ki", "result": 83, "unit": "nM"}
    ]},
    {"smiles": "CC(C)N1CCC(NC(=O)c2c(C#N)c(-c3cccs3)nn2Cc2cc(-c3ccc(Cl)s3)on2)CC1", "note": "[Example 12, 2-[5-(5-Chloro-thiophen-2-yl)-isoxazol-3-ylmethyl]-4-cyano-5-thiophen-2-yl-2H-pyrazole-3-carboxylic acid (1-isopropyl-piperidin-4-yl)-amide]", "values": [
      {"measurement": "Ki", "result": 14, "unit": "nM"}
    ]},
    {"smiles": "CC(C)N1CCC(NC(=O)c2nn(Cc3cc(-c4ccc(Cl)s4)on3)c(-c3cccs3)c2C#N)CC1", "note": "[Example 13, 1-[5-(5-Chloro-thiophen-2-yl)-isoxazol-3-ylmethyl]-4-cyano-5-thiophen-2-yl-1H-pyrazole-3-carboxylic acid (1-isopropyl-piperidin-4-yl)-amide]", "values": [
      {"measurement": "Ki", "result": 39, "unit": "nM"}
    ]},
    {"smiles": "CC(C)N1CCC(NC(=O)c2cc(-c3cccs3)nn2Cc2csc(-c3ccc(Cl)s3)n2)CC1", "note": "[Example 14, 2-[2-(5-Chloro-thiophen-2-yl)-thiazol-4-ylmethyl]-5-thiophen-2-yl-2H-pyrazole-3-carboxylic acid (1-isopropyl-piperidin-4-yl)-amide]", "values": [
      {"measurement": "Ki", "result": 46, "unit": "nM"}
    ]},
    {"smiles": "CC(C)N1CCC(NC(=O)c2cc(-c3cccs3)nn2Cc2cc3ccc(Cl)cc3s2)CC1", "note": "[Example 15, 2-(6-Chloro-benzo[b]thiophen-2-ylmethyl)-5-thiophen-2-yl-2H-pyrazole-3-carboxylic acid (1-isopropyl-piperidin-4-yl)-amide]", "values": [
      {"measurement": "Ki", "result": 13, "unit": "nM"}
    ]},
    {"smiles": "O=C(NCC1CCN(c2ccncc2)CC1)c1cc(-c2cccs2)nn1Cc1cc(-c2ccc(Cl)s2)on1", "note": "[Example 16, 2-[5-(5-Chloro-thiophen-2-yl)-isoxazol-3-ylmethyl]-5-thiophen-2-yl-2H-pyrazole-3-carboxylic acid (3,4,5,6-tetrahydro-2H-[1,4′]bipyridinyl-4-ylmethyl)-amide]", "values": [
      {"measurement": "Ki", "result": 165, "unit": "nM"}
    ]},
    {"smiles": "CC(C)N1CCC(CNC(=O)c2cc(-c3cccs3)nn2Cc2cc(-c3ccc(Cl)s3)on2)CC1", "note": "[Example 17, 2-[5-(5-Chloro-thiophen-2-yl)-isoxazol-3-ylmethyl]-5-thiophen-2-yl-2H-pyrazole-3-carboxylic acid (1-isopropyl-piperidin-4-ylmethyl)-amide]", "values": [
      {"measurement": "Ki", "result": 155, "unit": "nM"}
    ]},
    {"smiles": "O=C(NC1CCN(c2ccncc2)CC1)c1cc(-c2cccs2)nn1Cc1cc(-c2ccc(Cl)s2)on1", "note": "[Example 18, 2-[5-(5-Chloro-thiophen-2-yl)-isoxazol-3-ylmethyl]-5-thiophen-2-yl-2H-pyrazole-3-carboxylic acid (3,4,5,6-tetrahydro-2H-[1,4′]bipyridinyl-4-yl)-amide]", "values": [
      {"measurement": "Ki", "result": 205, "unit": "nM"}
    ]},
    {"smiles": "CC(C)N1CCC(NC(=O)c2c(C#N)c(-c3cccs3)nn2Cc2ccc(Cl)cc2)CC1", "note": "[Example 19, 2-(4-Chloro-benzyl)-4-cyano-5-thiophen-2-yl-2H-pyrazole-3-carboxylic acid (1-isopropyl-piperidin-4-yl)-amide]", "values": [
      {"measurement": "Ki", "result": 274, "unit": "nM"}
    ]},
    {"smiles": "COC(=O)c1cc(C(=O)NC2CCN(C(C)C)CC2)n(Cc2cc(-c3ccc(Cl)s3)on2)n1", "note": "[Example 20, 1-[5-(5-Chloro-thiophen-2-yl)-isoxazol-3-ylmethyl]-5-(1-isopropyl-piperidin-4-ylcarbamoyl)-1H-pyrazole-3-carboxylic acid methyl ester]", "values": [
      {"measurement": "Ki", "result": 73, "unit": "nM"}
    ]},
    {"smiles": "CC(C)N1CCC(NC(=O)c2cc(C(=O)O)nn2Cc2cc(-c3ccc(Cl)s3)on2)CC1", "note": "[Example 21, 1-[5-(5-Chloro-thiophen-2-yl)-isoxazol-3-ylmethyl]-5-(1-isopropyl-piperidin-4-ylcarbamoyl)-1H-pyrazole-3-carboxylic acid]", "values": [
      {"measurement": "Ki", "result": 214, "unit": "nM"}
    ]},
    {"smiles": "CCOC(=O)c1cc(C(=O)NC2CCN(C(C)C)CC2)n(Cc2cc(-c3ccc(Cl)s3)on2)n1", "note": "[Example 23, 1-[5-(5-Chloro-thiophen-2-yl)-isoxazol-3-ylmethyl]-5-(1-isopropyl-piperidin-4-ylcarbamoyl)-1H-pyrazole-3-carboxylic acid ethyl ester]", "values": [
      {"measurement": "Ki", "result": 144, "unit": "nM"}
    ]},
    {"smiles": "CC(C)N1CCC(NC(=O)c2cc(C(=O)N3CCOCC3)nn2Cc2cc(-c3ccc(Cl)s3)on2)CC1", "note": "[Example 25, 2-[5-(5-Chloro-thiophen-2-yl)-isoxazol-3-ylmethyl]-5-(morpholine-4-carbonyl)-2H-pyrazole-3-carboxylic acid (1-isopropyl-piperidin-4-yl)-amide]", "values": [
      {"measurement": "Ki", "result": 95, "unit": "nM"}
    ]},
    {"smiles": "CNC(=O)c1cc(C(=O)NC2CCN(C(C)C)CC2)n(Cc2cc(-c3ccc(Cl)s3)on2)n1", "note": "[Example 26, 1-[5-(5-Chloro-thiophen-2-yl)-isoxazol-3-ylmethyl]-1H-pyrazole-3,5-dicarboxylic acid 5-[(1-isopropyl-piperidin-4-yl)-amide] 3-methylamide]", "values": [
      {"measurement": "Ki", "result": 68, "unit": "nM"}
    ]}
  ]
}
